Columns and labels:
[1] = test system: TNFα; assay: In vitro inflammation assay: TNFα secretion from LPS-stimulated hMDMs, ELISA; type: cell-based, human; settings: concentrations ≥500 μM, 1 μg/mL LPS, 6 h
Method: In Vitro Inflammation Assay. In vitro inflammation was assessed by measuring the concentration of TNFα in the conditioned media of macrophages stimulated with 0.1-1 μg/mL LPS in the presence or absence of the compound of interest after 4-6 hrs.
Inhibition of TNFα secretion. hMDMs were pretreated with various concentrations of Compound (6) for 15 min and then stimulated with 1 μg/mL LPS. Conditioned media were collected 6 h later and TNFα concentrations were determined by ELISA.

[2] = test system: C6-IRG1-9 rat glioma cells; assay: C6-IRG1-9 rat glioma cell proliferation, CyQuant; type: cell-based; settings: various concentrations, 48 hrs
Method: Tumor Cell Proliferation Assay. This assay was used to assess the anti-tumor properties of a therapeutic agent in vitro. In a typical proliferation assay, cells were cultured to near confluency in the appropriate media. Subsequently, the cells were trypsinized and plated onto 96-well plates at 2,000 or 5,000 cell per well. The cells were cultured for 48 to 96 hours in the presence or absence of the therapeutic agent. Cell proliferation was then determined using spectrophotometry (MTT assay, BrdU assay) or fluorimetry (Cyquant assay).
Inhibition of C6-IRG1-9 Rat Glioma cell proliferation. C6-IRG1-9 cells are rat C6 glioma cells that have been transfected to overexpress IRG1. Overexpression of IRG1 is maintained by culturing the cells in DMEM media containing 0.55 μg/mL puromycin. For the proliferation assays, the cells were plated onto a 96-well plate at a density of 2,000 cells/well. The cells were allowed to adhere overnight; they were subsequently treated with various concentrations of compounds of Formula (2) for 48 hrs. At the end of the incubation period, the number of cells is assessed using the CyQuant Cell Proliferation kit (Thermo Fisher) according to the manufacturer's instructions. The results, shown in FIG. 3, indicate that compounds of Formula (2) are able to reduce or abrogate growth of C6-IRG1-9 cells. In FIG. 3, cell proliferation is expressed as % Untreated Control, defined as: […]
where t is the number of cells present in a treated well at the end of the incubation period, c is the number of cells present in an untreated well at the end of the incubation period, and s is the initial number of cells in the wells prior to initiation of treatment.

[3] = test system: hCD8^+ T cells; assay: Proliferation of TCR-activated hCD8+ T cells, CFSE dilution; type: cell-based, human; settings: 10 nM, compared to untreated TCR-activated control cells
Method: Augmentation of CD8^+ T Cell Proliferation. Naïve hCD8^+ T cells were isolated from commercially available buffy coats using magnetic separation and the appropriate kit from Miltenyi Biotec. Cells were then subject to TCR activation using a cocktail of anti-CD2/anti-CD^3/anti-CD28 antibodies. Untreated control and treated cells were included in the experiment. The cells were cultured for 72 hrs in TexMACS media (Miltenyi Biotec) without IL-2 and for an additional 48 hrs in TexMACS media containing 20U human IL-2/mL. Cell division was assessed by flow cytometry using the carboxyfluorescein succimidyl ester (CFSE) dilution method.

[4] = test system: hCD8^+ T cells; assay: hCD8+ T cell differentiation into effector T cells: GZMB release, ELISA; type: cell-based, human; settings: for Granzyme B (% Control): 72 hrs, normalized per number of cells
Method: Differentiation of T Cells. The ability of T cells to differentiate from a naïve to an effector state was assessed by measuring the levels of IFNγ or GZMB synthesis following activation of the cells using a cocktail of anti-CD2/anti-CD3/anti-CD28 antibodies. Expression of IFNγ, GZMB, and other effector cytokines was measured by determining their concentration in the conditioned media 24-72 hrs after initiation of activation or by estimating the % cells expressing these cytokines using fluorescence-activated cell sorting (FACS).
Augmentation of hCD8^+ T Cell Differentiation into Effector T Cells. Naïve CD8+ T cells were isolated from human buffy coats using magnetic separation and the appropriate kit from Miltenyi Biotec. Cells were then activated using a cocktail of anti-CD2/anti-CD3/anti-CD28 antibodies. Differentiation of the cells into effector T cells was assessed by determining the levels of IFNγ and GZMB released into the media at 24 and 72 hrs, respectively using appropriate ELISA kits. Cytokine concentrations were normalized per number of cells present and expressed as % Untreated Control.

[5] = test system: H3K4me3; assay: Epigenetic modification: H3K4me3 Western immunoblotting in TCR-activated hCD8+ T cells; type: cell-based, human; settings: 10 μM, 72 hrs
Method: Epigenetic Modifications. The ability of a therapeutic agent to alter acetylation and/or methylation of histones was assessed by Western Immunoblotting. Briefly, immune and other type cells were collected after being exposed to the therapeutic agent or vehicle control for a specific period of time, typically 24-72 hrs. They were then lysed and cell lysates from control and treated cells contained equal amounts of proteins were subjected to SDS-PAGE electrophoresis. The presence of acetylated and methylated histone sites was determined by Western Immunoblotting using appropriate antibodies.
Epigenetic Modification. TCR-activated hCD8^+ T cells were exposed to 0 or 10 μM Compound (6) for 72 hrs prior to lysing. Equal amounts of cell lysates were subjected to gel electrophoresis and Western immunoblotting against trimethylated lysine site 4 of histone 3 (H3K4me3). The experiment also included cell lysates from naïve cells. Image J was used for protein quantification. Western immunoblotting against histone 3 (H3) was also performed for normalization purposes. […] Exposure of the hCD8^+ T cells to 10 μM Compound (6) led to the depletion of trimethylated H3K4. H3K4me3 is commonly associated with activation of transcription.

[6] = test system: CT26 mouse colorectal tumors; assay: Survival and tumor growth of CT26 tumor-bearing mice; type: in vivo, C57BL/6 mice
Method: In Vivo Anti-Tumor Effect. The anticancer properties of the therapeutic agent were evaluated in vivo by determining the ability of the agent to suppress tumor growth and/or increase survival of tumor-bearing animals. In a typical experiment, 0.1-1×10^6 tumor cells, suspended in PBS containing 20% Matrigel, were injected subcutaneously in the right flank of each mouse. When the tumors became palpable, the animals were randomized into different groups and treatment began. In vivo tests routinely included a vehicle control group and different doses and/or routes of administration of the therapeutic agent. Tumor growth was assessed using calipers and the following formula:
Tumor Volume=length×width×width×½
The Kaplan-Meier analysis was used to estimate the survival probability of the tumor-bearing animals.
C57BL/6 mice were injected subcutaneously in the right flank with 1×10^5 CT26 mouse colorectal tumor cells, suspended in PBS containing 20% Matrigel. The tumors were allowed to grow to −100 mm^3. The mice were randomized into two groups (n=6 animals/group): one group received vehicle control and the other group was treated with i.p. injections of 0.2 mg/kg Compound (6) twice a week (Tuesday-Thursday). The experiment continued for 27 days, at which point the mortality rate of control animals was 80%. […] The experiment was repeated (FIG. 6B). In FIG. 6B, treated animals received oral administrations of 3 mg/kg Compound (6) twice a day.

[7] = 3 mg/kg oral twice a day, end of experiment

O=C(O)/C(=C\c1ccc(F)cc1)C(Cc1ccccc1)C(=O)O (centres unmarked) [Compound (6), 2-benzyl-3-[(4-flurophenyl)methylidene]butanedioic acid]
secretion of TNFα [1]: reduced secretion
proliferation of C6-IRG1-9 rat glioma cells [2]: inhibition of proliferation
proliferation of TCR-activated hCD8+ T cells [3]: increased proliferation
Granzyme B (% Control) ([4]; 0.1 nM): 117 % Control
Granzyme B (% Control) ([4]; 1 nM): 165 % Control
Granzyme B (% Control) ([4]; 10 nM): 504 % Control
Granzyme B (% Control) ([4]; 100 nM): 276 % Control
Granzyme B (% Control) ([4]; 10 μM): 360 % Control
production of GZMB ([4]; low concentrations): increase production
trimethylated H3K4 (H3K4me3/H3) [5]: depletion
survival (Kaplan-Meier) ([6]; 0.2 mg/kg i.p. twice a week, 27 days, vs vehicle control): survival advantage
animals with complete tumor regression [6, 7]: 1/6
mice with slower tumor growth [6, 7]: 5/6
survival (Kaplan-Meier) ([6]; 3 mg/kg orally twice a day): increased survival

Source: patent US20210261495A1, “COMPOSITIONS AND METHODS OF USING ITACONIC ACID DERIVATIVES” (ERGON PHARMACEUTICALS, LLC, priority 2018, published 2021)
